Source: patent publication US20240409536A1, “COMPOUNDS AND METHODS FOR MODULATING SPLICING” (REMIX THERAPEUTICS INC., priority 2021, published 2024)

Columns and labels:
[1] = test system: HiBiT-tagged MYB protein; assay: HiBiT protein abundance assay, MYB (K562 HiBiT knock-in cells); assay type: cell-based, human; details: 24 hours
Summary of the method: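 K562 cells with endogenous HiBiT knock-in tag, 10-point 3-fold dilutions (top 10 μM final, ≤0.25% DMSO), 24 h at 37 °C. Lytic Nano-Glo HiBiT luminescence, normalized to DMSO and unmodified K562 baselines; IC50 is concentration giving 50% protein abundance from four-parameter fit.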

[2] = test system: Target C mRNA; assay: Gene panel canonical junction qPCR assay, Target C CJ mRNA decrease; assay type: cell-based; details: Homo sapiens, canonical junction qPCR, read-out: Target C IC50 (decrease in CJ mRNA levels)
Summary of the method: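 A673 or K562 cells treated with compound; canonical exon-exon junction mRNA quantified by cDNA synthesis and RT-qPCR with junction-spanning primer/probe, normalized to GAPDH, GUSB or PPIA and DMSO (2^(−ΔΔCt)). Percent response from set ΔCt assay windows fitted to 4-parameter logistic; IC50 for CJ decrease.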

Compound | IC50 [1] [µM] | IC50 [2] [µM]
Cc1cn2cc(NC(=O)c3ccc(N4CC[C@@H](N)C4)c4ccnnc34)cc(F)c2n1 [Compound 270] | 0.1 to 1 | > 10
COc1cc2c(N3C[C@@H](C)N[C@@H](C)C3)ccc(C(=O)Nc3cc(F)c4nc(C)cn4c3)c2nn1 [Compound 273, 5-[(3R,5S)-3,5-dimethylpiperazin-1-yl]-N-{8-fluoro-2-methylimidazo[1,2-a]pyridin-6-yl}-3-methoxycinnoline-8-carboxamide] | 0.1 to 1 | 0.1 to 1
Cc1cn2cc(NC(=O)c3ccc(N4C[C@@H](C)N[C@@H](C)C4)c4ncc(O)nc34)cc(F)c2n1 [Compound 275] | > 10 | > 10
COc1nc(NC(=O)c2ccc(N3C[C@@H](C)N[C@@H](C)C3)c3nccnc23)cn2cc(C)nc12 [Compound 277] | < 0.1 | 1 to 10
Cc1cn2cc(NC(=O)c3ccc(N4C[C@@H](C)N[C@@H](C)C4)c4nccnc34)nc(Cl)c2n1 [Compound 279] | < 0.1 | > 10
Cc1cn2cc(NC(=O)c3ccc(N4C[C@@H](C)N[C@@H](C)C4)c4ncc(Cl)nc34)cc(F)c2n1 [Compound 281] | 1 to 10 | > 10
Cc1cn2cc(NC(=O)c3ccc(N4C[C@@H](C)N[C@@H](C)C4)c4ncc(N(C)C)nc34)cc(F)c2n1 [Compound 283] | < 0.1 | 0.1 to 1
Cc1cn2c(C)c(NC(=O)c3ccc(N4C[C@@H](C)N[C@@H](C)C4)c4nccnc34)cc(F)c2n1 [Compound 285] | 0.1 to 1 | 1 to 10
COc1nc(NC(=O)c2ccc(N3C[C@@H](C)N[C@@H](C)C3)c3nccnc23)nc2cn(C)nc12 [Compound 287] | 1 to 10 | > 10
Cc1cn2cc(NC(=O)c3ccc(N4C[C@@H](C)N[C@@H](C)C4)c4nccnc34)nc(C)c2n1 [Compound 288] | < 0.1 | 1 to 10
C[C@@H]1CN(c2ccc(C(=O)Nc3ccc4nc(N(C)C)oc4c3)c3nccnc23)C[C@H](C)N1 [Compound 290] | > 10 | > 10
COc1nc2ccc(NC(=O)c3ccc(N4C[C@@H](C)N[C@@H](C)C4)c4nccnc34)cc2o1 [Compound 292] | 1 to 10 | > 10
Cc1cn2cc(NC(=O)c3ccc(N4C[C@@H](C)N[C@@H](C)C4)c4nccnc34)cc(C#N)c2n1 [Compound 294] | 0.1 to 1 | > 10
CCOc1cnc2c(N3C[C@@H](C)N[C@@H](C)C3)ccc(C(=O)Nc3cc(F)c4nc(C)cn4c3)c2n1 [Compound 296] | < 0.1 | 1 to 10
COc1nc(NC(=O)c2ccc(N3C[C@@H](C)N[C@@H](C)C3)c3nccnc23)cc2oc(C)nc12 [Compound 298] | 0.1 to 1 | > 10
COc1ncc2c(N3C[C@@H](C)N[C@@H](C)C3)ccc(C(=O)Nc3cc(F)c4nc(C)cn4c3)c2n1 [Compound 300] | < 0.1 | 0.1 to 1
Cc1cn2cc(NC(=O)c3ccc(N4C[C@@H](C)N[C@@H](C)C4)c4cncnc34)cc(F)c2n1 [Compound 302] | 0.1 to 1 | 1 to 10
Cc1cn2cc(NC(=O)c3ccc(N4C[C@@H](C)N[C@@H](C)C4)c4nccnc34)cc(Cl)c2n1 [Compound 304] | < 0.1 | > 10
C[C@@H]1CN(c2ccc(C(=O)Nc3cc(F)c4nc(Cl)cn4c3)c3nccnc23)C[C@H](C)N1 [Compound 306] | 0.1 to 1 | > 10
CNc1nc(NC(=O)c2ccc(N3C[C@@H](C)N[C@@H](C)C3)c3nccnc23)cn2cc(C)nc12 [Compound 308] | 1 to 10 | > 10
Cc1c(O)c(NC(=O)c2ccc(N3C[C@@H](C)N[C@@H](C)C3)c3nccnc23)cc2cn(C)nc12 [Compound 310] | 1 to 10 | > 10
Cc1cn2cc(NC(=O)c3ccc(N4C[C@@H](C)N[C@H](C)C4)c4nccnc34)cc(F)c2n1 [Compound 312] | < 0.1 | > 10
Cc1cn2cc(NC(=O)c3ccc(N4C[C@H](C)N[C@@H](C)C4)c4nccnc34)cc(F)c2n1 [Compound 313] | < 0.1 | 1 to 10
Cc1cn2cc(NC(=O)c3ccc(N4CC[C@@H](N)C4)c4nccnc34)cc(F)c2n1 [Compound 315] | 0.1 to 1 | > 10
Cc1cn2cc(NC(=O)c3ccc(NC4CCNC4)c4nccnc34)cc(F)c2n1 (stereo not drawn) [Compound 316] | 0.1 to 1 | > 10
C[C@@H]1CN(c2ccc(C(=O)Nc3cc(F)c4nn(C)cc4c3)c3nccnc23)C[C@@H](C)N1 [Compound 335] | 0.1 to 1 | > 10

Compound | IC50 [1] [µM] | IC50 [2] [µM]
Cc1cn2cc(NC(=O)c3ccc(N4CCC5(CCN5)C4)c4nccnc34)cc(F)c2n1 (stereo not drawn) [Compound 339] | 0.1 to 1 | 1 to 10
Cc1cn2cc(NC(=O)c3ccc(N4C[C@@H](C)N[C@@H](C)C4)c4cccnc34)cc(F)c2n1 [Compound 340] | 0.1 to 1 | 1 to 10
Cc1cn2cc(NC(=O)c3ccc(N4CCNC5(CC5)C4)c4cccnc34)cc(F)c2n1 [Compound 341] | 0.1 to 1 | 1 to 10
COc1nc2c(F)cc(NC(=O)c3ccc(N4C[C@@H](C)N[C@@H](C)C4)c4nccnc34)cc2o1 [Compound 342] | > 10 | > 10
C[C@@H]1CN(c2ccc(C(=O)Nc3cc(F)c4cnccc4c3)c3nccnc23)C[C@H](C)N1 [Compound 343] | 1 to 10 | 1 to 10
C[C@@H]1CN(c2ccc(C(=O)Nc3cc(F)c4ncccc4c3)c3nccnc23)C[C@H](C)N1 [Compound 344] | 1 to 10 | > 10
Cc1cn2cc(NC(=O)c3ccc(N4CCNCC4)c4nncnc34)cc(F)c2n1 [Compound 345] | 0.1 to 1 | 1 to 10
Cc1cn2cc(NC(=O)c3ccc(N4C[C@@H](C)N[C@@H](C)C4)c4ncc(OC5CC5)nc34)cc(F)c2n1 [Compound 351] | 0.1 to 1 | 1 to 10
COc1nc(NC(=O)c2ccc(N3C[C@@H](C)N[C@@H](C)C3)c3nccnc23)cc2cn(C)nc12 [Compound 352] | 0.1 to 1 | 1 to 10
Cc1ccc2cc(NC(=O)c3ccc(N4C[C@@H](C)N[C@@H](C)C4)c4nccnc34)cc(F)c2n1 [Compound 353] | > 10 | > 10
Cc1cn2nc(NC(=O)c3ccc(N4C[C@@H](C)N[C@@H](C)C4)c4nccnc34)cc2c(C)n1 [Compound 354] | 0.1 to 1 | 0.1 to 1
Cc1cn2cc(NC(=O)c3ccc(N4C[C@@H](C)N(O)[C@@H](C)C4)c4nccnc34)cc(F)c2n1 [Compound 355] | 0.1 to 1 | > 10
Cc1cn2cc(NC(=O)c3ccc(N4CCC(N)(CF)CC4)c4nccnc34)cc(F)c2n1 [Compound 356] | 1 to 10 | > 10
COc1cn2cc(NC(=O)c3ccc(N4C[C@@H](C)N[C@@H](C)C4)c4nccnc34)cc(F)c2n1 [Compound 357] | 1 to 10 | > 10
Cc1cn2cc(NC(=O)c3ccc(N4C[C@@H](C)N[C@@H](C)C4)c4ncccc34)cc(F)c2n1 [Compound 358] | > 10 | > 10
Cc1cn2cc(NC(=O)c3ccc(N4C[C@@H](C)N[C@@H](C)C4)c4nccnc34)nc2c(C)n1 [Compound 359] | 0.1 to 1 | > 10
C[C@@H]1CN(c2ccc(C(=O)Nc3cc(F)c4nc(O)cn4c3)c3nccnc23)C[C@H](C)N1 [Compound 360] | > 10 | > 10
Cc1cn2cc(NC(=O)c3ccc(N4CCN[C@H](CO)C4)c4nccnc34)cc(F)c2n1 [Compound 362] | 0.1 to 1 | 1 to 10
Cc1cn2cc(NC(=O)c3ccc(N4CCNC5(CCC5)C4)c4nccnc34)cc(F)c2n1 [Compound 363] | < 0.1 | 1 to 10
Cc1cn2cc(NC(=O)c3ccc(N4CCN(C)C5(CC5)C4)c4nccnc34)cc(F)c2n1 [Compound 364] | 0.1 to 1 | 1 to 10
CCN1CCN(c2ccc(C(=O)Nc3cc(F)c4nc(C)cn4c3)c3nccnc23)CC12CC2 [Compound 365] | 0.1 to 1 | 1 to 10
Cc1cn2cc(NC(=O)c3ccc(N4CCN[C@H](CF)C4)c4nccnc34)cc(F)c2n1 [Compound 366] | 0.1 to 1 | 1 to 10
Cc1cn2cc(NC(=O)c3ccc(N4CCN[C@@H](CF)C4)c4nccnc34)cc(F)c2n1 [Compound 367] | 1 to 10 | 1 to 10
Cc1cn2cc(NC(=O)c3ccc(N4CCNC(C)(CO)C4)c4nccnc34)cc(F)c2n1 (stereo not drawn) [Compound 368] | < 0.1 | 1 to 10
Cc1cn2cc(NC(=O)c3ccc(N4CCN(CCO)C5(CC5)C4)c4nccnc34)cc(F)c2n1 [Compound 369] | 0.1 to 1 | 1 to 10
